Tests used:
Format in all cases: in vivo
[1] = system: barnyardgrass (Echinochloa crus-galli); experiment: Test A pre-/postemergence plant response; conditions: for Barnyardgrass plant response rating: visual injury, 0 to 100 scale (0 no effect, 100 complete control), approx. ten days
How it was run: (§1)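 Each species was treated preemergence via directed soil spray and postemergence at the one- to two-leaf stage, with compounds formulated in a non-phytotoxic solvent plus surfactant. Visual injury relative to untreated controls was rated after about ten days on a 0–100 scale.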

corn (Zea mays) = experiment: Test A pre-/postemergence plant response; conditions: for Corn plant response rating: visual injury, 0 to 100 scale (0 no effect, 100 complete control), approx. ten days
How it was run: as §1

[2] = system: giant foxtail (Setaria faberii); experiment: Test A pre-/postemergence plant response; conditions: for Foxtail, Giant plant response rating: visual injury, 0 to 100 scale (0 no effect, 100 complete control), approx. ten days
How it was run: as §1

[3] = system: large crabgrass (Digitaria sanguinalis); experiment: Test A pre-/postemergence plant response; conditions: for Crabgrass, Large plant response rating: visual injury, 0 to 100 scale (0 no effect, 100 complete control), approx. ten days
How it was run: as §1

[4] = system: morningglory (Ipomoea spp.); experiment: Test A pre-/postemergence plant response; conditions: for Morningglory plant response rating: visual injury, 0 to 100 scale (0 no effect, 100 complete control), approx. ten days
How it was run: as §1

[5] = system: pigweed (Amaranthus retroflexus); experiment: Test A pre-/postemergence plant response; conditions: for Pigweed plant response rating: visual injury, 0 to 100 scale (0 no effect, 100 complete control), approx. ten days
How it was run: as §1

[6] = system: velvetleaf (Abutilon theophrasti); experiment: Test A pre-/postemergence plant response; conditions: for Velvetleaf plant response rating: visual injury, 0 to 100 scale (0 no effect, 100 complete control), approx. ten days
How it was run: as §1

[7] = system: wheat (Triticum aestivum); experiment: Test A pre-/postemergence plant response; conditions: for Wheat plant response rating: visual injury, 0 to 100 scale (0 no effect, 100 complete control), approx. ten days
How it was run: as §1

[8] = system: barnyardgrass (Echinochloa crus-galli); experiment: Test B flooded paddy test; conditions: for Plant response rating, Flood, Barnyardgrass: 250 g ai/ha, flooded paddy test, visual rating on 0 to 100 scale (0 no effect, 100 complete control) after 13 to 15 days; for Plant response rating, Barnyardgrass: Flood (flooded paddy test), 13 to 15 days; for Barnyardgrass plant response rating: Flood, 31 g ai/ha, scale 0 to 100 (0 no effect, 100 complete control)
How it was run: (§2)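 2-leaf seedlings; pots flooded 3 cm over soil at treatment; cpd dosed into floodwater, depth kept constant. Greenhouse 13–15 d. Visual rating vs untreated controls, 0 = no effect, 100 = complete control.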

[9] = system: ducksalad (Heteranthera limosa); experiment: Test B flooded paddy test; conditions: for Plant response rating, Flood, Ducksalad: 250 g ai/ha, flooded paddy test, visual rating on 0 to 100 scale (0 no effect, 100 complete control) after 13 to 15 days; for Plant response rating, Ducksalad: Flood (flooded paddy test), 13 to 15 days; for Ducksalad plant response rating: Flood, 31 g ai/ha, scale 0 to 100 (0 no effect, 100 complete control)
How it was run: as §2

rice (Oryza sativa) = experiment: Test B flooded paddy test; conditions: for Plant response rating, Flood, Rice: 250 g ai/ha, flooded paddy test, visual rating on 0 to 100 scale (0 no effect, 100 complete control) after 13 to 15 days; for Plant response rating, Rice: Flood (flooded paddy test), 13 to 15 days; for Rice plant response rating: Flood, 31 g ai/ha, scale 0 to 100 (0 no effect, 100 complete control)
How it was run: as §2

[10] = system: umbrella sedge (Cyperus difformis); experiment: Test B flooded paddy test; conditions: for Plant response rating, Flood, Sedge, Umbrella: 250 g ai/ha, flooded paddy test, visual rating on 0 to 100 scale (0 no effect, 100 complete control) after 13 to 15 days; for Plant response rating, Sedge, Umbrella: Flood (flooded paddy test), 13 to 15 days; for Sedge, Umbrella plant response rating: Flood, 31 g ai/ha, scale 0 to 100 (0 no effect, 100 complete control)
How it was run: as §2

[11] = Postemergence, 125 g ai/ha, 0 to 100 scale where 0 is no effect and 100 is complete control
[12] = Preemergence, 125 g ai/ha, 0 to 100 scale, 0 = no effect, 100 = complete control
[13] = Preemergence, 500 g ai/ha, 0 to 100 scale, 0 = no effect, 100 = complete control
[14] = 62 g ai/ha, scale of 0 to 100 where 0 is no effect and 100 is complete control
[15] = 125 g ai/ha, scale 0 to 100, 0 is no effect, 100 is complete control

Cc1ccccc1-n1c(-c2cccc(Br)c2)ncc(C(=O)C2=C(O)CCCC2=O)c1=O [Compound 209]
Plant response rating, Barnyardgrass [1, 11]: 80
Barnyardgrass plant response rating ([1]; Postemergence, 500 g ai/ha): 100
Plant response rating, Barnyardgrass [1, 12]: 0
Plant response rating, Barnyardgrass [1, 13]: 50
Plant response rating, Corn (corn (Zea mays); [11]): 0
Corn plant response rating (corn (Zea mays); Postemergence, 500 g ai/ha): 40
Plant response rating, Corn (corn (Zea mays); [12]): 0
Plant response rating, Corn (corn (Zea mays); [13]): 20
Plant response rating, Foxtail, Giant [2, 11]: 60
Foxtail, Giant plant response rating ([2]; Postemergence, 500 g ai/ha): 100
Plant response rating, Foxtail, Giant [2, 12]: 10
Plant response rating, Foxtail, Giant [2, 13]: 60
Plant response rating, Crabgrass, Large [3, 11]: 50
Crabgrass, Large plant response rating ([3]; Postemergence, 500 g ai/ha): 100
Plant response rating, Crabgrass, Large [3, 12]: 20
Plant response rating, Crabgrass, Large [3, 13]: 70
Plant response rating, Morningglory [4, 11]: 30
Morningglory plant response rating ([4]; Postemergence, 500 g ai/ha): 100
Plant response rating, Morningglory [4, 12]: 0
Plant response rating, Morningglory [4, 13]: 30
Plant response rating, Pigweed [5, 11]: 60
Pigweed plant response rating ([5]; Postemergence, 500 g ai/ha): 100
Plant response rating, Pigweed [5, 12]: 0
Plant response rating, Pigweed [5, 13]: 70
Plant response rating, Velvetleaf [6, 11]: 100
Velvetleaf plant response rating ([6]; Postemergence, 500 g ai/ha): 100
Plant response rating, Velvetleaf [6, 12]: 60
Plant response rating, Velvetleaf [6, 13]: 100
Plant response rating, Wheat [7, 11]: 0
Wheat plant response rating ([7]; Postemergence, 500 g ai/ha): 0
Plant response rating, Wheat [7, 12]: 0
Plant response rating, Wheat [7, 13]: 0
Plant response rating, Flood, Barnyardgrass [8]: 20
Plant response rating, Barnyardgrass [8, 14]: 0
Plant response rating, Barnyardgrass [8, 15]: 0
Barnyardgrass plant response rating [8]: 0
Plant response rating, Flood, Ducksalad [9]: 85
Plant response rating, Ducksalad [9, 14]: 50
Plant response rating, Ducksalad [9, 15]: 85
Ducksalad plant response rating [9]: 0
Plant response rating, Flood, Rice (rice (Oryza sativa)): 20
Plant response rating, Rice (rice (Oryza sativa); [14]): 0
Plant response rating, Rice (rice (Oryza sativa); [15]): 10
Rice plant response rating (rice (Oryza sativa)): 0
Plant response rating, Flood, Sedge, Umbrella [10]: 80
Plant response rating, Sedge, Umbrella [10, 14]: 50
Plant response rating, Sedge, Umbrella [10, 15]: 70
Sedge, Umbrella plant response rating [10]: 0

Cc1ccc(-n2c(-c3cccc(C)c3)ncc(C(=O)C3=C(O)CCCC3=O)c2=O)cc1 [Compound 211]
Plant response rating, Barnyardgrass [1, 11]: 50
Barnyardgrass plant response rating ([1]; Postemergence, 500 g ai/ha): 100
Plant response rating, Barnyardgrass [1, 12]: 10
Plant response rating, Barnyardgrass [1, 13]: 70
Plant response rating, Corn (corn (Zea mays); [11]): 0
Corn plant response rating (corn (Zea mays); Postemergence, 500 g ai/ha): 20
Plant response rating, Corn (corn (Zea mays); [12]): 0
Plant response rating, Corn (corn (Zea mays); [13]): 0
Plant response rating, Foxtail, Giant [2, 11]: 50
Foxtail, Giant plant response rating ([2]; Postemergence, 500 g ai/ha): 80
Plant response rating, Foxtail, Giant [2, 12]: 20
Plant response rating, Foxtail, Giant [2, 13]: 50
Plant response rating, Crabgrass, Large [3, 11]: 40
Crabgrass, Large plant response rating ([3]; Postemergence, 500 g ai/ha): 80
Plant response rating, Crabgrass, Large [3, 12]: 10
Plant response rating, Crabgrass, Large [3, 13]: 90
Plant response rating, Morningglory [4, 11]: 70
Morningglory plant response rating ([4]; Postemergence, 500 g ai/ha): 100
Plant response rating, Morningglory [4, 12]: 0
Plant response rating, Morningglory [4, 13]: 10
Plant response rating, Pigweed [5, 11]: 70
Pigweed plant response rating ([5]; Postemergence, 500 g ai/ha): 90
Plant response rating, Pigweed [5, 12]: 40
Plant response rating, Pigweed [5, 13]: 60
Plant response rating, Velvetleaf [6, 11]: 60
Velvetleaf plant response rating ([6]; Postemergence, 500 g ai/ha): 70
Plant response rating, Velvetleaf [6, 12]: 30
Plant response rating, Velvetleaf [6, 13]: 60
Plant response rating, Wheat [7, 11]: 0
Wheat plant response rating ([7]; Postemergence, 500 g ai/ha): 0
Plant response rating, Wheat [7, 12]: 0
Plant response rating, Wheat [7, 13]: 0
Plant response rating, Flood, Barnyardgrass [8]: 35
Plant response rating, Barnyardgrass [8, 14]: 0
Plant response rating, Barnyardgrass [8, 15]: 25
Barnyardgrass plant response rating [8]: 0
Plant response rating, Flood, Ducksalad [9]: 85
Plant response rating, Ducksalad [9, 15]: 85
Ducksalad plant response rating [9]: 50
Plant response rating, Flood, Rice (rice (Oryza sativa)): 15
Plant response rating, Rice (rice (Oryza sativa); [14]): 0
Plant response rating, Rice (rice (Oryza sativa); [15]): 0
Rice plant response rating (rice (Oryza sativa)): 0
Plant response rating, Flood, Sedge, Umbrella [10]: 80
Plant response rating, Sedge, Umbrella [10, 14]: 0
Plant response rating, Sedge, Umbrella [10, 15]: 70
Sedge, Umbrella plant response rating [10]: 0

Reference: patent US8952024B2, “Herbicidal pyrimidone derivatives” (E I du Pont de Nemours and Company, priority 2009, dated 2015)
